Experimental data as given in paper PMC12032302, “A20 attenuates oxidized self-DNA-mediated inflammation in acute kidney injury” (Signal Transduction and Targeted Therapy, 2025).

Tests used:
[1] = tested on: patients; settings: first course of cisplatin treatment; cited from earlier work
Text: Acute kidney injury (AKI) is a life-threatening condition characterized by a rapid loss of renal function, leading to high mortality and morbidity.[1],[2] Approximately 13% of patients received the first course of cisplatin treatment developed AKI.[2],[3] Despite various initial triggers, the pathophysiology of AKI often involves common pathogenic denominators, such as cell death, tissue injury, and drastic inflammation.[4] Several types of cell death have been recently described in AKI, and multiple strategies targeting cell death have been reported to help mitigate the progression of AKI.[5] ...

[2] = tested on: AKI mice; assay: survival of AKI mice; assay type: in vivo, mouse; settings: n = 10 per group
Procedure: (§1) Aristolochic acid I sodium salt was dissolved in PBS to 1 mg/mL and injected intraperitoneally at a dose of 10 mg/kg (body weight) every 24 h for 3 days; cisplatin was dissolved in PBS to 1.5 mg/mL for one-time intraperitoneal 25 mg/kg injection; LPS (Sigma, Cat#L2630) was dissolved in PBS to 2.5 mg/mL for one-time intraperitoneal 25 mg/kg injection; deoxyribonuclease I (DNase I, Sigma, Cat#SLBV1446) was dissolved in PBS to 1 mg/mL and injected intraperitoneally at a dose of 10 mg/kg at 4 h before cisplatin or AA I injection and every 24 h after injection. Disulfiram (MedChemExpress, CAS:97-77-8) was diluted in corn oil to 12.5 mg/mL and injected 50 mg/kg intraperitoneally every 24 h after cisplatin or AA I administration. Cu(II) (Sigma, Cat#344419) was dissolved in PBS to 30 µg/mL and administered intraperitoneally 6 h before disulfiram at a dose of 0.15 mg/kg; TNF-α (Peprotech, Cat#315-01 A) was dissolved in PBS to 10 µg/mL and injected at 100 µg/kg once through the caudal vein 24 h before cisplatin injection. Metformin (Sigma, Cat#D150959) was dissolved in PBS to 5 mg/mL and injected intraperitoneally at a dose of 50 mg/kg 24 h before cisplatin or AA I injection and every 24 h after injection. MCC950 (MedChem Express, CAS:256373-96-3) was dissolved in PBS to 5 mg/mL and injected intraperitoneally at a dose of 50 mg/kg 12 h before cisplatin or AA I injection and every 12 h after injection; berberine (APExBIO, Cat#N1368) was dissolved in PBS to 5 mg/mL and 5 mg/kg injected intraperitoneally at 36, 24 and 12 h before cisplatin; A20-derived-peptide was dissolved in ddH2O to 3 mg/mL and injected intraperitoneally at a dose of 15 mg/kg 1 h before cisplatin. To supervise the effects of various treatments on survival time and rate, the mice were observed, and survival curves were generated. To investigate the specific mechanisms, whole blood was retrieved from the orbit, serum was separated through centrifugation on the 4th day, and the mice were then sacrificed by cervical dislocation. Mice were randomly assigned in experiments, while there was no blinding during the animal experiments.

[3] = tested on: AKI mice; assay: serum creatinine of AKI mice; assay type: in vivo, mouse
Procedure: (§2) LPS (Sigma, Cat#L2630) was dissolved in PBS to 2.5 mg/mL for one-time intraperitoneal 25 mg/kg injection; deoxyribonuclease I (DNase I, Sigma, Cat#SLBV1446) was dissolved in PBS to 1 mg/mL and injected intraperitoneally at a dose of 10 mg/kg at 4 h before cisplatin or AA I injection and every 24 h after injection. Disulfiram (MedChemExpress, CAS:97-77-8) was diluted in corn oil to 12.5 mg/mL and injected 50 mg/kg intraperitoneally every 24 h after cisplatin or AA I administration. Cu(II) (Sigma, Cat#344419) was dissolved in PBS to 30 µg/mL and administered intraperitoneally 6 h before disulfiram at a dose of 0.15 mg/kg; TNF-α (Peprotech, Cat#315-01 A) was dissolved in PBS to 10 µg/mL and injected at 100 µg/kg once through the caudal vein 24 h before cisplatin injection. […] MCC950 (MedChem Express, CAS:256373-96-3) was dissolved in PBS to 5 mg/mL and injected intraperitoneally at a dose of 50 mg/kg 12 h before cisplatin or AA I injection and every 12 h after injection; berberine (APExBIO, Cat#N1368) was dissolved in PBS to 5 mg/mL and 5 mg/kg injected intraperitoneally at 36, 24 and 12 h before cisplatin; […] To supervise the effects of various treatments on survival time and rate, the mice were observed, and survival curves were generated. To investigate the specific mechanisms, whole blood was retrieved from the orbit, serum was separated through centrifugation on the 4th day, and the mice were then sacrificed by cervical dislocation. Mice were randomly assigned in experiments, while there was no blinding during the animal experiments. Renal function was evaluated based on serum creatinine level and histological features. Serum creatinine was determined in the Clinical Pharmacology Lab, Clinical Trial Center, WCH, SCU. The kidneys were extracted from euthanized mice, immediately fixed with 4% paraformaldehyde, and embedded in paraffin. Furthermore, the samples were cut into 5 µm thick sections. These tissue samples were subjected to hematoxylin-eosin (HE) and […] according to standard protocols with HE reagent (Biosharp, Cat#BL702B, BL703B) and Masson reagent (Servicebio, Cat#G1006-100ML). The pathological changes were detected through optical microscopy, and the tubulointerstitial injury score was determined as previously reported.

[4] = tested on: AKI mice; assay: tubular injury / renal injury of AKI mice (HE histology); assay type: in vivo, mouse
Procedure: as §2

[5] = tested on: AKI mice; assay: overall therapeutic effect in AKI mice; assay type: in vivo, mouse; settings: TNF-α vs Anc80L65 (A20 overexpression)
Procedure: as §1

[6] = tested on: BMDMs; assay: pyroptotic induction of BMDMs by ox-DNA or LPS plus ATP (immunoblot of GSDMD); assay type: cell-based, mouse; settings: BMDMs pretreated with low-dose TNF-α before ox-dsDNA90 or LPS plus ATP; Fig. 6l
Procedure: Primary bone marrow-derived macrophages (BMDMs) were isolated from 6- to 8-week-old C57BL/6J male mice. The mice were sacrificed and soaked in 75% alcohol for 1–2 min. The femurs and tibias were removed and immersed in PBS containing 500 U/mL penicillin and […] streptomycin for 3 min. The marrow cavities were repeatedly rinsed with DMEM using a sterile 1 mL syringe. The cell suspension was collected and centrifuged at 300 × g for 10 min, and the supernatant was discarded. The cell pellet was resuspended in 5 mL red cell lysis buffer (Bio Sharp, Cat#BL503A) on ice for 5 min, followed by centrifugation, and the supernatant was removed. The cells were then resuspended in DMEM complete culture medium supplemented with 10% FBS and 30% L929 cell-conditioned medium as an induction factor.[51] Half of the medium was changed every other day for 5–7 days. The suspended cells were removed, and the adherent BMDMs were digested with trypsin and plated on a six-well plate at a density of 1 × 10^6 cells/well. […]
(§3) Prepared protein samples were subjected to 6-15% SDS polyacrylamide gels and separated according to the protein concentrations. […] The protein bands were detected with an enhanced chemiluminescence kit (Millipore, Cat#WBKLS0500) using a gel imaging system (Bio-Rad, USA) for visualization and standardization of the amount of protein loaded. α-Tubulin was used as the internal control.

[7] = tested on: AKI mice; assay: renal fibrosis of AKI mice (Masson staining); assay type: in vivo, mouse; settings: Cis mice; metformin 50 mg/kg i.p. 24 h before and every 24 h after; n = 5
Procedure: LPS (Sigma, Cat#L2630) was dissolved in PBS to 2.5 mg/mL for one-time intraperitoneal 25 mg/kg injection; deoxyribonuclease I (DNase I, Sigma, Cat#SLBV1446) was dissolved in PBS to 1 mg/mL and injected intraperitoneally at a dose of 10 mg/kg at 4 h before cisplatin or AA I injection and every 24 h after injection. Disulfiram (MedChemExpress, CAS:97-77-8) was diluted in corn oil to 12.5 mg/mL and injected 50 mg/kg intraperitoneally every 24 h after cisplatin or AA I administration. Cu(II) (Sigma, Cat#344419) was dissolved in PBS to 30 µg/mL and administered intraperitoneally 6 h before disulfiram at a dose of 0.15 mg/kg; TNF-α (Peprotech, Cat#315-01 A) was dissolved in PBS to 10 µg/mL and injected at 100 µg/kg once through the caudal vein 24 h before cisplatin injection. […] Renal function was evaluated based on serum creatinine level and histological features. Serum creatinine was determined in the Clinical Pharmacology Lab, Clinical Trial Center, WCH, SCU. […] The pathological changes were detected through optical microscopy, and the tubulointerstitial injury score was determined as previously reported.

[8] = tested on: NEK7; assay: NEK7 expression in iBMDMs (immunoblot); assay type: cell-based, mouse; settings: LPS plus metformin 0, 1, 2 or 5 mM, Fig. 9a
Procedure: For immunoblot analysis of kidney tissue, total protein lysates were prepared from renal tissue, which was ground in liquid nitrogen and then added to lysis buffer in a Total Protein Extraction Kit (Signalway Antibody, Cat#PE001). Samples were centrifuged at 12,000 rpm for 15 min at 4 °C, and the supernatant was collected immediately. For immunoblot analysis of cells, cultured cells after treatment were lysed with lysis buffer, which was premixed with protease and phosphatase inhibitors (Signalway Antibody, Cat#PE001). The samples were centrifuged at 12,000 r/min for 15 min at 4 °C, and the supernatant was collected immediately. Ultimately, both types of protein samples were then mixed with 4× Laemmli loading buffer (Bio-Rad, Cat#1610747) and denatured by boiling at 95 °C for 5 min.
as §3, with “concentrations. Then, the protein bands were transferred to polyvinylidene difluoride (PVDF) membranes by a wet transfer apparatus (Bio-Rad, USA).” for “concentrations.”

[9] = tested on: NEK7; assay: NEK7 expression in renal tissue of mice (immunoblot); assay type: in vivo, mouse; settings: Cis mice, metformin 50 mg/kg i.p., Fig. 9b
Procedure: For immunoblot analysis of kidney tissue, total protein lysates were prepared from renal tissue, which was ground in liquid nitrogen and then added to lysis buffer in a Total Protein Extraction Kit (Signalway Antibody, Cat#PE001). Samples were centrifuged at 12,000 rpm for 15 min at 4 °C, and the supernatant was collected immediately. […] Ultimately, both types of protein samples were then mixed with 4× Laemmli loading buffer (Bio-Rad, Cat#1610747) and denatured by boiling at 95 °C for 5 min.
Prepared protein samples were subjected to 6-15% SDS polyacrylamide gels and separated according to the protein concentrations. Then, the protein bands were transferred to polyvinylidene difluoride (PVDF) membranes by a wet transfer apparatus (Bio-Rad, USA). […] The protein bands were detected with an enhanced chemiluminescence kit (Millipore, Cat#WBKLS0500) using a gel imaging system (Bio-Rad, USA) for visualization and standardization of the amount of protein loaded. α-Tubulin was used as the internal control. […]

[10] = tested on: NEK7; settings: low dose; cited from earlier work
Text: Furthermore, we investigated the potential therapeutic medicines targeting to NEK7 and evaluated their effects on alleviating AKI. […] A ...

[11] = Cis or AA I mice, TNF-α 100 µg/kg pre-injection
[12] = Cis mice, metformin 50 mg/kg i.p. 24 h before and every 24 h after

## N.N.[Cl][Pt][Cl] [cisplatin]
[1]
  patients developing AKI after first course of treatment: Approximately 13%

## TNF-α
[2]; Cis or AA I mice, TNF-α 100 µg/kg once through the caudal vein 24 h before
  survival: extended overall survival benefit
[3]; [11]
  serum creatinine (in words): alleviated serum creatinine
[4]; [11]
  tubular injury (in words): alleviated serum creatinine and tubular injury
[5]
  alleviation of AKI compared with Anc80L65: more efficient in alleviating AKI
[6]
  resistance of BMDMs to pyroptotic induction: more resistant to pyroptotic induction

## CN(C)C(=N)N=C(N)N [metformin, Metformin]
[2]; [12]
  survival: longer survival time and better survival rate
[3]; [12]
  serum creatinine (in words): markedly ameliorated cisplatin-induced serum creatines
[4]; [12]
  tubular injury (in words): markedly ameliorated cisplatin-induced serum creatines, tubular injury
[7]
  renal fibrosis: markedly ameliorated cisplatin-induced serum creatines, tubular injury, renal fibrosis
[8]
  NEK7 expression in vitro: downregulates NEK7
[9]
  NEK7 expression in vivo: downregulates NEK7
[10]
  NEK7 expression (literature): limit the expression of NEK7 to alleviate inflammation
